The values that follow come from PMC4134510 (Journal of medicinal chemistry, 2010).

Data set [1] deals with T1, PDK1(h) (Homo sapiens, UniProt O15530).
T1 sequence (O15530 1-556): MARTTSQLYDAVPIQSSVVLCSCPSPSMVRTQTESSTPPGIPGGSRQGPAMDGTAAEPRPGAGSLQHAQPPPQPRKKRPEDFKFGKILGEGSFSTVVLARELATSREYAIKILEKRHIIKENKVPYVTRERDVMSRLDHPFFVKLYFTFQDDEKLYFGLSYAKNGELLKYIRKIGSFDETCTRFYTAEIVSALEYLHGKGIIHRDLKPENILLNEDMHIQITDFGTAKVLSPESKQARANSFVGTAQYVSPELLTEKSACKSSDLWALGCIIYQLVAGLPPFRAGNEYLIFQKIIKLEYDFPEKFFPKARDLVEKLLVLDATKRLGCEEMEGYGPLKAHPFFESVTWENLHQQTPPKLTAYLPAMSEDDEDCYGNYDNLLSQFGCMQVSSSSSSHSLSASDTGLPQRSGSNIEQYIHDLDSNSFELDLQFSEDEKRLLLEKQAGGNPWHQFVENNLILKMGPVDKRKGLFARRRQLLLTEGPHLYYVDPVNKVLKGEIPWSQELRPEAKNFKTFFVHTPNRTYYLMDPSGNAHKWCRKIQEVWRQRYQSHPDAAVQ
Briefly: Kinase selectivity panel, enzymatic activity. Type of data set: biochemical. The conditions noted are these: read-out: Enzymatic activity (% inhibition): PDK1(h).

A short description of data set [2]: Pharmacokinetic properties on Balb/C mouse. The conditions noted are these: in vivo, oral, 20 mg/kg.
Data set [3] is classed as in vivo. The conditions noted are these: mice, oral once daily.

One may read the inhibition as the drop in the measured response relative to a control, in per cent. For orientation: AUC means concentration integrated over time. High values mean more exposure, low ones less exposure. As for `Cc1ccc(Nc2ncc3c(n2)N(C)C(=O)N(c2cc(NC(=O)c4cccc(C(F)(F)F)c4)ccc2C)C3)cn1` [GNF-7], the inhibition at 10 µM in data set [1] worked out at 0%. This compound also had an AUC in data set [2] of 26.7 µM·h. In data set [3] (10 mg/kg dosing group), the body weight change entry is “only a very small weight change”. Further, in data set [3] (doses of 20 mg/kg and above), the body weight loss was above 10%.
